Results: paper PMC7932080, “In vitro study of Hesperetin and Hesperidin as inhibitors of zika and chikungunya virus proteases” (PLoS ONE, 2021)
“And” between values parts separate entries of the source, which are not always exact repeats. Equal values may be shown once. Read-outs that look alike come from different tables or passages of the source.

Columns and labels:
ZIKV NS2B/NS3^pro [1] = target: T1, ZIKV NS2B/NS3^pro (Zika virus, UniProt A0A024B7W1); set-up: method as in PMID 28700665; settings: cited from earlier work
CHIKV [2] = settings: cited from earlier work
trypsin = test system: trypsin; set-up: method as in PMID 23124490; settings: cited from earlier work
CHIKV nsP2^pro [3] = target: T2, CHIKV nsP2^pro (Chikungunya virus, UniProt Q8JUX6); test: Intrinsic Trp fluorescence titration (KD); settings: Trp fluorescence quenching, ± STD
CHIKV [4] = test: Plaque reduction antiviral assay in Vero cells; settings: ~50 PFU, two inhibitor concentrations
[5] = dose of administration 20 mg/kg, cited from earlier work
ZIKV NS2B/NS3^pro [6] = target: T1, ZIKV NS2B/NS3^pro; test: ZIKV NS2B/NS3^pro inhibition assay, fluorogenic substrate Pyr-Arg-Thr-Lys-Arg-AMC; settings: compound 20 µM
[7] = cited from earlier work
CHIKV nsP2^pro [8] = target: T2, CHIKV nsP2^pro; test: Thermal unfolding by fluorescence spectroscopy; settings: 10 µM protease, 75 µM ligand
[9] = cited from earlier work; remark: listed apart in the source
CHIKV nsP2^pro [10] = target: T2, CHIKV nsP2^pro; test: CHIKV nsP2^pro FRET-based inhibition assay; type: biochemical; settings: for % activity, mean / % inhibition, mean: mean n=3
Vero cells = test: Cell viability through MTT assay
CHIKV nsP2^pro [11] = target: T2, CHIKV nsP2^pro; set-up: method as in PMID 32791353; settings: cited from earlier work

T1 sequence (A0A024B7W1 1425-1464): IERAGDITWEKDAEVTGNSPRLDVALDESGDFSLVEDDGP
T1 sequence (A0A024B7W1 1503-1680): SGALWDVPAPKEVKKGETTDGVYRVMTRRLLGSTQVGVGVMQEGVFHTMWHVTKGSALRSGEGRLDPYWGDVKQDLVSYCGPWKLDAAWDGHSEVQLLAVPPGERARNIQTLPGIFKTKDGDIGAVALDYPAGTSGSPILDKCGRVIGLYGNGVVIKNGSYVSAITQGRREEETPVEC
T2 sequence (Q8JUX6 1001-1333): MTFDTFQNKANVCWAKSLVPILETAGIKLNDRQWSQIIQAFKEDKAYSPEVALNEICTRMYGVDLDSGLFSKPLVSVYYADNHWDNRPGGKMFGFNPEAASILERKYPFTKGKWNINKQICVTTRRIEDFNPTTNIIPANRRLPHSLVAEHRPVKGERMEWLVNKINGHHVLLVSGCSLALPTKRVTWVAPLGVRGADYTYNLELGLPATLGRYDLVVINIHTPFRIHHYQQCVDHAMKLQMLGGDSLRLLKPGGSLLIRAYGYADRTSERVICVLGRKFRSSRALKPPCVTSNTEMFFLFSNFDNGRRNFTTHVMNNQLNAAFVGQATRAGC

O=c1cc(-c2ccc(O)cc2)oc2cc(O)cc(O)c12 [Apigenin]
IC50 (ZIKV NS2B/NS3^pro [1]): 56.3 ± 0.9 µM | Inhibition mode (ZIKV NS2B/NS3^pro [1]): noncompetitive

COc1cc(/C=C/C(=O)CC(=O)/C=C/c2ccc(O)c(OC)c2)ccc1O [Curcumin]
Inhibition mode (ZIKV NS2B/NS3^pro [1]): noncompetitive

COc1ccc([C@@H]2CC(=O)c3c(O)cc(O[C@@H]4O[C@H](CO[C@@H]5O[C@@H](C)[C@H](O)[C@@H](O)[C@H]5O)[C@@H](O)[C@H](O)[C@H]4O)cc3O2)cc1O [HSD, 3’,5,7-trihydroxy-4’-methoxy-flavanone-7-rhamnoglucoside]
Intracellular replication of CHIKV (CHIKV [2]): inhibit | IC50 (trypsin): 127 µM | Kd (CHIKV nsP2^pro [3]): 40.7 ± 2 µM | Antiviral activity, plaque reduction (CHIKV [4]): no antiviral activities | AUC inf. [5]: 4.92 ± 0.38 µM·h | AUC last [5]: 4.12 ± 0.26 µM·h | Cl systemic clearance [5]: 112 ± 9.67 mL/min/kg | MRT mean residence time [5]: 4.22 ± 0.67 h | T1/2 elimination half-life [5]: 6.74 ± 0.79 h | Vd volume of distribution [5]: 64.58 ± 3.70 L/kg | C0 ([5]; read-out: Co initial concentration): 7.47 ± 1.64 µM | Inhibition of protease activity, preliminary inhibition test (ZIKV NS2B/NS3^pro [6]): not relevant inhibition | Bioavailability [7]: limited bioavailability | Melting temperature (Tm) of protease-ligand complex (CHIKV nsP2^pro [8]): 52 °C | ΔTm (CHIKV nsP2^pro [8]): 5 °C | Potential maximal tolerated dose [9]: Citrus flavonoids are extremely safe and without side effects also up to high concentrations of 100 mg/kg to 500 mg/kg. | IC50 (CHIKV nsP2^pro [10]; 1 µM protease, 3 µM substrate, mean ± SD, n=3): < 10000 nM | LE (ligand efficiency) (CHIKV nsP2^pro [10]; (1.4*pIC50)/N): 0.17 | % activity, mean (CHIKV nsP2^pro [10]; HSD 0.25 (µM)): 97.3333% | % inhibition, mean (CHIKV nsP2^pro [10]; HSD 0.25 (µM)): 2.667% | % activity, mean (CHIKV nsP2^pro [10]; HSD 0.5 (µM)): 90.3333% | % inhibition, mean (CHIKV nsP2^pro [10]; HSD 0.5 (µM)): 9.667% | inhibition at 0.5 µM (CHIKV nsP2^pro [10]; HSD 0.5 (µM), replicates A-C): 11% | % activity, mean (CHIKV nsP2^pro [10]; HSD 1 (µM)): 82% | % inhibition, mean (CHIKV nsP2^pro [10]; HSD 1 (µM)): 18% | % activity (CHIKV nsP2^pro [10]; HSD 1 (µM), replicates A-C): 84% | % inhibition (CHIKV nsP2^pro [10]; HSD 1 (µM), replicates A-C): 16% | inhibition at 1 µM (CHIKV nsP2^pro [10]; HSD 1 (µM), replicates A-C): 22% | % activity, mean (CHIKV nsP2^pro [10]; HSD 2.5 (µM)): 72.3333% | % inhibition, mean (CHIKV nsP2^pro [10]; HSD 2.5 (µM)): 27.6667% | inhibition at 2.5 µM (CHIKV nsP2^pro [10]; HSD 2.5 (µM), replicates A-C): 33% | % activity, mean (CHIKV nsP2^pro [10]; HSD 5 (µM)): 54.6667% | % inhibition, mean (CHIKV nsP2^pro [10]; HSD 5 (µM)): 45.3333% | inhibition at 5 µM (CHIKV nsP2^pro [10]; HSD 5 (µM), replicates A-C): 49% | % activity, mean (CHIKV nsP2^pro [10]; HSD 10 (µM)): 39.6667% | % inhibition, mean (CHIKV nsP2^pro [10]; HSD 10 (µM)): 60.3333% | inhibition at 10 µM (CHIKV nsP2^pro [10]; HSD 10 (µM), replicates A-C): 62% | % activity, mean (CHIKV nsP2^pro [10]; HSD 15 (µM)): 28.6667% | % inhibition, mean (CHIKV nsP2^pro [10]; HSD 15 (µM)): 71.3333% | % activity (CHIKV nsP2^pro [10]; HSD 15 (µM), replicates A-C): 30% | % inhibition (CHIKV nsP2^pro [10]; HSD 15 (µM), replicates A-C): 70% | inhibition at 15 µM (CHIKV nsP2^pro [10]; HSD 15 (µM), replicates A-C): 74% | % activity, mean (CHIKV nsP2^pro [10]; HSD 20 (µM)): 21% | % inhibition, mean (CHIKV nsP2^pro [10]; HSD 20 (µM)): 79% | inhibition at 20 µM (CHIKV nsP2^pro [10]; HSD 20 (µM), replicates A-C): 82% | % activity, mean (CHIKV nsP2^pro [10]; HSD 25 (µM)): 10.3333% | % inhibition, mean (CHIKV nsP2^pro [10]; HSD 25 (µM)): 89.6667% | inhibition at 25 µM (CHIKV nsP2^pro [10]; HSD 25 (µM), replicates A-C): 93% | % activity, mean (CHIKV nsP2^pro [10]; HSD 30 (µM)): 6% | % inhibition, mean (CHIKV nsP2^pro [10]; HSD 30 (µM)): 94% | inhibition at 30 µM (CHIKV nsP2^pro [10]; HSD 30 (µM), replicates A-C): 97% | % activity, mean (CHIKV nsP2^pro [10]; HSD 35 (µM)): 3% | inhibition at 35 µM (CHIKV nsP2^pro [10]; HSD 35 (µM), replicates A-C): 99% | % activity, mean (CHIKV nsP2^pro [10]; HSD 40 (µM)): 0.4% | % inhibition, mean (CHIKV nsP2^pro [10]; HSD 40 (µM)): 99.6% | inhibition at 40 µM (CHIKV nsP2^pro [10]; HSD 40 (µM), replicates A-C): 99.7% | inhibition at 45 µM (CHIKV nsP2^pro [10]; HSD 45 (µM), replicates A-C): 100% | IC50 (CHIKV nsP2^pro [10]; IC50, 1 µM protease, 3 µM substrate, mean ± SD, n=3): 7100 ± 1100 nM | IC50 (CHIKV nsP2^pro [10]; IC50, single replicate, HSD, single replicates A, B, C): 8.32 µM (2×) and 5.62 µM (2×) and 7.24 µM (2×) | Inhibition mode (CHIKV nsP2^pro [10]; Lineweaver-Burk plot): noncompetitive | IC50 (CHIKV nsP2^pro [10]; Log conc nM (IC50 determination triplicate), HSD, single replicates A, B, C): 8320 nM and 5620 nM and 7240 nM | IC50 (CHIKV nsP2^pro [10]; pIC50, from IC50 by online tool): 6310 nM | remaining activity at 0.25 µM (CHIKV nsP2^pro [10]; read-out: % activity, HSD 0.25 (µM), replicates A-C): 95% | remaining activity at 0.5 µM (CHIKV nsP2^pro [10]; read-out: % activity, HSD 0.5 (µM), replicates A-C): 89% | remaining activity at 1 µM (CHIKV nsP2^pro [10]; read-out: % activity, HSD 1 (µM), replicates A-C): 78% | remaining activity at 2.5 µM (CHIKV nsP2^pro [10]; read-out: % activity, HSD 2.5 (µM), replicates A-C): 67% | remaining activity at 5 µM (CHIKV nsP2^pro [10]; read-out: % activity, HSD 5 (µM), replicates A-C): 51% | remaining activity at 10 µM (CHIKV nsP2^pro [10]; read-out: % activity, HSD 10 (µM), replicates A-C): 38% | remaining activity at 15 µM (CHIKV nsP2^pro [10]; read-out: % activity, HSD 15 (µM), replicates A-C): 26% | remaining activity at 20 µM (CHIKV nsP2^pro [10]; read-out: % activity, HSD 20 (µM), replicates A-C): 18% | remaining activity at 25 µM (CHIKV nsP2^pro [10]; read-out: % activity, HSD 25 (µM), replicates A-C): 7% | remaining activity at 45 µM (CHIKV nsP2^pro [10]; read-out: % activity, HSD 45 (µM), replicates A-C): 0% | inhibition at 20 µM (CHIKV nsP2^pro [10]; read-out: Inhibition of protease activity, preliminary inhibition test, compound 20 µM): > 60% | Cytotoxic effect at the calculated IC50 concentrations (Vero cells; 2.3 to 300 µM, 2 days): no cytotoxic effect | 50% cytotoxic concentration (Vero cells; 48 h, concentrations up to 300 µM): > 300 µM

COc1cc(-c2oc3cc(O)cc(O)c3c(=O)c2O)ccc1O [Isorhamnetin]
IC50 (ZIKV NS2B/NS3^pro [1]): 15.5 ± 0.7 µM | Inhibition mode (ZIKV NS2B/NS3^pro [1]): noncompetitive

O=c1cc(-c2ccc(O)c(O)c2)oc2cc(O)cc(O)c12 [Luteolin]
Inhibition mode (ZIKV NS2B/NS3^pro [1]): noncompetitive

O=c1c(O)c(-c2cc(O)c(O)c(O)c2)oc2cc(O)cc(O)c12 [Myricetin]
IC50 (ZIKV NS2B/NS3^pro [1]): 1.3 ± 0.1 µM | Inhibition mode (ZIKV NS2B/NS3^pro [1]): noncompetitive

CO[C@@H]1[C@@H](OC(N)=O)[C@@H](O)[C@H](Oc2ccc3c(O)c(NC(=O)c4ccc(O)c(CC=C(C)C)c4)c(=O)oc3c2C)OC1(C)C [Novobiocin]
IC50 (CHIKV nsP2^pro [11]): 2 µM

O=c1c(O)c(-c2ccc(O)c(O)c2)oc2cc(O)cc(O)c12 [Quercetin]
IC50 (ZIKV NS2B/NS3^pro [1]): 2.4 ± 0.2 µM | Inhibition mode (ZIKV NS2B/NS3^pro [1]): noncompetitive

CCCc1nc2c(C)cc(-c3nc4ccccc4n3C)cc2n1Cc1ccc(-c2ccccc2C(=O)O)cc1 [Telmisartan]
IC50 (CHIKV nsP2^pro [11]): 5 µM
